For series [1], the system named is Mycobacterium tuberculosis H37Ra. The experiment in a line: microbe, parasite or virus in culture. It is filed as cell-based.
Series [2] is described as follows: Cytotoxicity against VERO cells. It is filed as cell-based. To be noted: African green monkey, VERO cells (kidney epithelial cells).

Molecules are shown by their SMILES. ≈ marks a conversion by molar mass, not a printed value.

For orientation: CC50 means the concentration giving 50% cytotoxicity.

Take `O=C(OC1CCN(c2nc(=O)c3cc(C(F)(F)F)cc([N+](=O)[O-])c3s2)CC1)c1ccccc1F` [Compound 2i, 1-(8-Nitro-4-oxo-6-(trifluoromethyl)-4H-benzo[e][1,3]thiazin-2-yl)piperidin-4-yl 2-fluorobenzoate]: the MIC in series [1] was at most 0.002 µM. Also, the CC50 in series [2] was over 10 µM.
On the same counts, the results for `CCOC(=O)CC1CCN(c2nc(=O)c3cc(C(F)(F)F)cc([N+](=O)[O-])c3s2)CC1` [Compound 2c, Ethyl 2-(1-(8-nitro-4-oxo-6-(trifluoromethyl)-4H-benzo[e][1,3]thiazin-2-yl)-piperidin-4-yl)acetate] are 0.016 µM (≈ 7.13 ng/mL) and over 10 µM.
On the same counts, the results for `CCOC(=O)C1CCN(c2nc(=O)c3cc(C(F)(F)F)cc([N+](=O)[O-])c3s2)CC1` [Compound 2a, Ethyl 1-(8-nitro-4-oxo-6-(trifluoromethyl)-4H-benzo[e][1,3]thiazin-2-yl)piperidine-4-carboxylate] are 0.008 µM (≈ 3.45 ng/mL) and over 10 µM.
On the same counts, the results for `CN(C)c1ccc(C(=O)OC2CCN(c3nc(=O)c4cc(C(F)(F)F)cc([N+](=O)[O-])c4s3)CC2)cc1` [Compound 2o, 1-(8-Nitro-4-oxo-6-(trifluoromethyl)-4H-benzo[e][1,3]thiazin-2-yl)piperidin-4-yl 4-(dimethylamino)benzoate] are 0.031 µM (≈ 16.2 ng/mL) and over 10 µM.
For `O=C1OCCC1N1CCN(c2nc(=O)c3cc(C(F)(F)F)cc([N+](=O)[O-])c3s2)CC1` (stereo not shown) [Compound 2f, 8-Nitro-2-(4-(2-oxotetrahydrofuran-3-yl)piperazin-1-yl)-6-(tri-fluoromethyl)-4H-benzo[e][1,3]thiazin-4-one], the MIC in series [1] came out at 0.064 µM (≈ 28.4 ng/mL). In series [2], this compound yielded a CC50 of over 10 µM.
On the same counts, the results for `O=c1nc(N2CCC(Oc3ccccn3)CC2)sc2c([N+](=O)[O-])cc(C(F)(F)F)cc12` [Compound 3k, 8-Nitro-2-(4-(pyridin-2-yloxy)piperidin-1-yl)-6-(trifluoro-methyl)-4H-benzo[e][1,3]thiazin-4-one] are 0.031 µM (≈ 14 ng/mL) and over 10 µM.
`CCCCN1CCN(c2nc(=O)c3cc(C(F)(F)F)cc([N+](=O)[O-])c3s2)CC1=O` [Compound 1d, 2-(4-Butyl-3-oxopiperazin-1-yl)-8-nitro-6-(trifluoromethyl)-4H-benzo[e][1,3]-thiazin-4-one]: in series [2], the 50% cytotoxic concentration (CC50) was over 10 µM.
`O=C(OC1CCN(c2nc(=O)c3cc(C(F)(F)F)cc([N+](=O)[O-])c3s2)CC1)c1ccc(F)cc1` [Compound 2h, 1-(8-Nitro-4-oxo-6-(trifluoromethyl)-4H-benzo[e][1,3]thiazin-2-yl)piperidin-4-yl 4-fluorobenzoate] displayed an MIC in series [1] of at most 0.002 µM.
Compound `Cc1ccccc1OC1CCN(c2nc(=O)c3cc(C(F)(F)F)cc([N+](=O)[O-])c3s2)CC1` [Compound 3g, 8-Nitro-2-(4-(o-tolyloxy)piperidin-1-yl)-6-(trifluoromethyl)-4H-benzo[e][1,3]thiazin-4-one] yielded an MIC in series [1] of 0.016 µM (≈ 7.45 ng/mL). Moreover, in series [2], the cytotoxic concentration (CC50) is over 10 µM.
On to `CCOC(=O)C(C)N1CCN(c2nc(=O)c3cc(C(F)(F)F)cc([N+](=O)[O-])c3s2)CC1` (stereo not shown) [Compound 2d, Ethyl 2-(4-(8-nitro-4-oxo-6-(trifluoromethyl)-4H-benzo[e][1,3]thiazin-2-yl)-piperazin-1-yl)propanoate], for which, in series [1], the MIC was found to be 0.008 µM (≈ 3.68 ng/mL).
Same read-out and setting: then `O=c1nc(N2CCC(Oc3nccc(C(F)(F)F)n3)CC2)sc2c([N+](=O)[O-])cc(C(F)(F)F)cc12` [Compound 3n, 8-Nitro-6-(trifluoromethyl)-2-(4-((4-(trifluoromethyl)pyrimidin-2-yl)oxy)piperidin-1-yl)-4H-benzo[e][1,3]thiazin-4-one], with 0.004 µM (≈ 2.09 ng/mL); and `O=c1nc(N2CCC(Oc3ccc(F)cc3)CC2)sc2c([N+](=O)[O-])cc(C(F)(F)F)cc12` [Compound 3b, 2-(4-(4-Fluorophenoxy)piperidin-1-yl)-8-nitro-6-(trifluoro-methyl)-4H-benzo[e][1,3]-thiazin-4-one], with 0.004 µM (≈ 1.88 ng/mL).

(Values after paper PMC9078972 (RSC Advances, 2018).)
